According to US20060047261A1, “Intra-arterial catheter for drug delivery” (priority 2004, published 2006):

Key:
[1] = intracarotid; cited from earlier work
New Zealand rabbits = experiment: Intracarotid propofol (0.33% and 1%) before, during and after flow arrest: duration of electrocerebral silence; type: in vivo, rabbit
Protocol: The study was conducted on eight New Zealand rabbits that were subjected to six drug challenges. […] The flow arrest was produced by intravenous injection of esmolol (10 mg) and adenosine (30 mg).

[2] = co-administration of intracarotid verapamil; n=14, P=0.04

## CCCC(C)C1(CC)C(=O)NC(=S)NC1=O (stereo not drawn) [pentothal]
[1]
  loading dose of 1% pentothal: about 0.3±0.1 ml

## CC(C)c1cccc(C(C)C)c1O [propofol]
rabbits; after last intracarotid injection
  time to complete recovery of EEG activity and systemic changes (blood pressure): ≤ 10 min
rabbits; intracarotid, volume of 0.4 ml with 0.5% propofol
  EEG silence: produced EEG silence in all cases
New Zealand rabbits; 0.33% vs 1% (1 or 3 mg) intracarotid, P=0.02, NS on post-hoc testing, n=8
  increase of the duration of EEG silence by changing concentration: 2-4 folds
New Zealand rabbits; intracarotid 1 or 3 mg during esmolol/adenosine flow arrest, n=8, P<0.0001
  increase of the duration of EEG silence by flow arrest: 15-20 folds

## COc1ccc(CCN(C)CCCC(C#N)(c2ccc(OC)c(OC)c2)C(C)C)cc1OC (stereo not drawn) [verapamil]
[2]
  doses of intracarotid propofol required to produce 10 minutes of EEG silence: significantly increased
